The source of these data is PMC8286840, “Identifying SARS-CoV-2 antiviral compounds by screening for small molecule inhibitors of Nsp3 papain-like protease” (Biochemical Journal, 2021).

Where a name gives a salt, the structure may show the parent alone. Read-outs that look alike come from different tables or passages of the source.

Assay [1] deals with T1, SARS-CoV-2 PLpro (nsp3 1564–1878) (Severe acute respiratory syndrome coronavirus 2, UniProt P0DTD1). Description: biochemical. The arrangement: FRET-quenched peptide (Pro3) cleavage by PLpro, 10 min pre-incubation, slope over 20 min, normalised to no-compound control. The settings on record: low concentration screen, read-out: % of control remaining.
For assay [2], the target named is T1, SARS-CoV-2 PLpro (nsp3 1564–1878). Description: biochemical. The note with it: high concentration screen, read-out: % of control remaining. On the set-up: FRET-quenched peptide (Pro3) cleavage by PLpro, 10 min pre-incubation, slope over 20 min, normalised to no-compound control.

Turning to `O=C(Oc1ccc([N+](=O)[O-])cc1)N1CCC(C(O)(c2ccc3c(c2)OCO3)c2ccc3c(c2)OCO3)CC1` [JZL184], the remaining activity at 1.25 µM in assay [1] (Well no.=8838) was 92.7%. In assay [2] (Well no.=8838), the remaining activity at 3.75 µM was 91.1%.

Consider `O=C(Oc1ccc([N+](=O)[O-])cc1)N1CCN(Cc2cccc(Oc3ccccc3)c2)CC1` [JZL195], for which the remaining activity at 1.25 µM in assay [1] (Well no.=5512) amounted to 107%. Also, in assay [2] (Well no.=5512), the remaining activity at 3.75 µM turned out to be 108%.

As for `CC1=C2C(=O)[C@H]3[C@@H](CC=C4C[C@@H](O)CC[C@@]43C)[C@@H]2CC[C@]12O[C@@H]1C[C@H](C)CN[C@H]1[C@H]2C` [Jervine], the remaining activity at 1.25 µM in assay [1] (Well no.=3367) was 92%. Besides, the remaining activity at 3.75 µM in assay [2] (Well no.=3367) stood at 96.2%.

Turning to `COC(=O)[C@]1(O)C[C@@H]2O[C@@]1(C)n1c3ccccc3c3c4c(c5c6ccccc6n2c5c31)C(=O)NC4` [K-252a, Nocardiopsis sp.], the remaining activity at 1.25 µM in assay [1] (Well no.=2552) came to 95.7%. Besides, the remaining activity at 3.75 µM in assay [2] (Well no.=2552) came out at 95.2%.

As for `C=CC(=O)N1CCN(C(=O)CNc2cc(I)c(Cl)cc2O)CC1` [K-Ras(G12C) inhibitor 12], the remaining activity at 1.25 µM in assay [1] (Well no.=7951) amounted to 99.9%. The remaining activity at 3.75 µM in assay [2] (Well no.=7951) came out at 90.4%.

For the compound `N=C(N)SCCc1ccc(OCc2ccc([N+](=O)[O-])cc2)cc1` [KB-R7943], the remaining activity at 1.25 µM in assay [1] (Well no.=5823) is 105%. The remaining activity at 3.75 µM in assay [2] (Well no.=5823) is 106%.

As for `O=S(=O)(NCCSSCCNS(=O)(=O)c1cc(Cl)ccc1Cl)c1cc(Cl)ccc1Cl` [KC7F2], the remaining activity at 1.25 µM in assay [1] (Well no.=8580) was found to be 107%. Further, the remaining activity at 3.75 µM in assay [2] (Well no.=8580) is 102%.

On to `NC(=O)c1ccc(-c2cc(-c3ccc([N+](=O)[O-])cc3)nc(-c3ccco3)c2)cc1` [KJ Pyr 9], for which the remaining activity at 1.25 µM in assay [1] (Well no.=6346) worked out at 99.3%. Besides, in assay [2] (Well no.=6346), the remaining activity at 3.75 µM was 101%.

As to `CN([C@@H](Cc1ccc(OS(=O)(=O)c2cccc3cnccc23)cc1)C(=O)N1CCN(c2ccccc2)CC1)S(=O)(=O)c1cccc2cnccc12` [KN-62], the remaining activity at 1.25 µM in assay [1] (Well no.=670) came out at 97.4%; in assay [1] (Well no.=2308), 99.3%. Further, the results for the remaining activity at 3.75 µM in assay [2] (Well no.=670) and in assay [2] (Well no.=2308) were 95.8% and 99%, respectively.

For `COc1ccc(S(=O)(=O)Nc2ccccc2CN(C)C/C=C/c2ccc(Cl)cc2)cc1` [KN-92], in assay [1] (Well no.=2483), the remaining activity at 1.25 µM came out at 96.3%. Besides, the remaining activity at 3.75 µM in assay [2] (Well no.=2483) came out at 94.2%.

On to `COc1ccc(S(=O)(=O)N(CCO)c2ccccc2CN(C)C/C=C/c2ccc(Cl)cc2)cc1` [KN-93], for which the remaining activity at 1.25 µM in assay [1] (Well no.=2556) came out at 103%. In addition, the remaining activity at 3.75 µM in assay [2] (Well no.=2556) worked out at 102%.

Regarding `O=CN1CC/C(=C\c2ccc3c(c2)OCO3)C1=O` [KNK437], the remaining activity at 1.25 µM in assay [1] (Well no.=8768) came out at 92.1%. Besides, the remaining activity at 3.75 µM in assay [2] (Well no.=8768) was found to be 89.6%.

As to `O=C(Nc1ccccc1C(=O)Nc1ccc(CCO)cc1)c1ccc([N+](=O)[O-])cc1` [KS-176], the remaining activity at 1.25 µM in assay [1] (Well no.=5911) amounted to 101%. In addition, in assay [2] (Well no.=5911), the remaining activity at 3.75 µM was found to be 102%.

Turning to `CCCCCCOC(=O)[C@]1(O)C[C@@H]2O[C@@]1(C)n1c3ccccc3c3c4c(c5c6ccccc6n2c5c31)C(=O)NC4` [KT5720], in assay [1] (Well no.=2481), the remaining activity at 1.25 µM came to 105%. In addition, the remaining activity at 3.75 µM in assay [2] (Well no.=2481) came out at 109%.

Take `COc1ccc(-c2ccc3c(N4CCOCC4)nc(N4C[C@@H](C)O[C@@H](C)C4)nc3n2)cc1CO` [KU0063794]: the remaining activity at 1.25 µM in assay [1] (Well no.=2899) worked out at 105%. In addition, in assay [2] (Well no.=2899), the remaining activity at 3.75 µM worked out at 103%.

Consider `O=c1cc(-c2cccc3c2Sc2ccccc2S3)oc(N2CCOCC2)c1` [KU 55933 - 2-(4-Morpholinyl)-6-(1-thianthrenyl)-4H-pyran-4-one], for which the remaining activity at 1.25 µM in assay [1] (Well no.=2438) was 101%. Moreover, in assay [2] (Well no.=2438), the remaining activity at 3.75 µM came out at 103%.

On to `C[C@@H]1CN(CC(=O)Nc2ccc3c(c2)Cc2cccc(-c4cc(=O)cc(N5CCOCC5)o4)c2S3)C[C@H](C)O1` [KU-60019], for which the remaining activity at 1.25 µM in assay [1] (Well no.=5299) turned out to be 93.8%. Also, the remaining activity at 3.75 µM in assay [2] (Well no.=5299) was 85.8%.

Turning to `O=C(c1ccc(/C=C/c2n[nH]c3ccccc23)cc1)N1CCNCC1` [KW 2449], in assay [1] (Well no.=5108), the remaining activity at 1.25 µM was found to be 102%. In addition, in assay [2] (Well no.=5108), the remaining activity at 3.75 µM amounted to 107%.

As to `CCc1c(O)cc(O)c(C(=O)c2ccc(OCCN3CCOCC3)c(OC)c2)c1CC(=O)N(CCOC)CCOC` [KW-2478], the remaining activity at 1.25 µM in assay [1] (Well no.=5342) turned out to be 93.8%. The remaining activity at 3.75 µM in assay [2] (Well no.=5342) came out at 94.5%.

As to `O=C(Cc1ccc(-c2ccc(OCCN3CCOCC3)cc2)cn1)NCc1ccccc1` [KX2-391], the remaining activity at 1.25 µM in assay [1] (Well no.=5350) came to 94.7%. Moreover, the remaining activity at 3.75 µM in assay [2] (Well no.=5350) came out at 94.3%.

With `COc1ccc(CCC(=O)Nc2nc3ccc(Cl)cc3s2)cc1OC` [KY02111], the remaining activity at 1.25 µM in assay [1] (Well no.=4782) came out at 105%. For the same compound, the remaining activity at 3.75 µM in assay [2] (Well no.=4782) came to 98.2%.

On to `C[C@@H]1O[C@@H](O[C@H]2[C@H](Oc3cc(O)c4c(=O)c(O)c(-c5ccc(O)cc5)oc4c3)O[C@H](CO)[C@@H](O)[C@@H]2O)[C@H](O)[C@H](O)[C@H]1O` [Kaempferol-7-neohesperidoside], for which the remaining activity at 1.25 µM in assay [1] (Well no.=3307) was 102%. For the same compound, the remaining activity at 3.75 µM in assay [2] (Well no.=3307) came out at 103%.

As for `O=c1c(O)c(-c2ccc(O)cc2)oc2cc(O)cc(O)c12` [Kaempferol], the values for the remaining activity at 1.25 µM in assay [1] (Well no.=3426) and in assay [1] (Well no.=6246) were 89.4% and 105%, respectively. The remaining activity at 3.75 µM in assay [2] (Well no.=3426) is 90.3%; in assay [2] (Well no.=6246), 109%.

Take `CC(=O)OC[C@@]1(O)CC23CC[C@@H]4c5ccoc5C=C[C@@]4(C)[C@@H]2CC[C@@H]1C3` [Kahweol Acetate]: in assay [1] (Well no.=3489), the remaining activity at 1.25 µM was found to be 102%. Besides, the remaining activity at 3.75 µM in assay [2] (Well no.=3489) was determined as 103%.

For `C=C(C)[C@H]1CN[C@H](C(=O)O)[C@H]1CC(=O)O` [Kainic acid], the remaining activity at 1.25 µM in assay [1] (Well no.=829) is 106%; in assay [1] (Well no.=7792), 105%. Also, the results for the remaining activity at 3.75 µM in assay [2] (Well no.=829), in assay [2] (Well no.=3369) and in assay [2] (Well no.=7792) were 105%, 104% and 102%, respectively.

For `NC[C@H]1O[C@H](O[C@H]2[C@H](O)[C@@H](O[C@H]3O[C@H](CO)[C@@H](O)[C@H](N)[C@H]3O)[C@H](N)C[C@@H]2N)[C@H](O)[C@@H](O)[C@@H]1O` [Kanamycin sulfate], the remaining activity at 1.25 µM in assay [1] (Well no.=3428) was found to be 97.3%. In assay [2] (Well no.=3428), the remaining activity at 3.75 µM was determined as 96.2%.

Take `CCN1C[C@]2(C)CC[C@H](O)[C@]34C1[C@@H](C[C@H]23)[C@@]1(O)C[C@H](OC)[C@H]2C[C@@H]4[C@@H]1[C@H]2O` [Karakoline]: the remaining activity at 1.25 µM in assay [1] (Well no.=831) is 102%; in assay [1] (Well no.=3157), 111%. Also, the remaining activity at 3.75 µM in assay [2] (Well no.=831) was 99.5%; in assay [2] (Well no.=3157), 103%.

For `O=C(O)c1ccccc1C(=O)Nc1ccc(-c2ccccc2)cc1` [Kartogenin], the remaining activity at 1.25 µM in assay [1] (Well no.=5620) turned out to be 91.3%. Moreover, in assay [2] (Well no.=5620), the remaining activity at 3.75 µM worked out at 96.3%.
